Measured values reported in ChEMBL document CHEMBL1128126, “Inhibitors of human leukocyte elastase. 2.1 synthesis and sar of benzisothiazolinylmethyl aryl ethers” (Bioorg Med Chem Lett, 1995).

How the values were obtained:
Neutrophil elastase = target: T1, Neutrophil elastase (Homo sapiens, UniProt P08246); experiment: Binding affinity for human leukocyte elastase (HLE); Kreact/Kinact
T1 sequence (P08246 whole entry): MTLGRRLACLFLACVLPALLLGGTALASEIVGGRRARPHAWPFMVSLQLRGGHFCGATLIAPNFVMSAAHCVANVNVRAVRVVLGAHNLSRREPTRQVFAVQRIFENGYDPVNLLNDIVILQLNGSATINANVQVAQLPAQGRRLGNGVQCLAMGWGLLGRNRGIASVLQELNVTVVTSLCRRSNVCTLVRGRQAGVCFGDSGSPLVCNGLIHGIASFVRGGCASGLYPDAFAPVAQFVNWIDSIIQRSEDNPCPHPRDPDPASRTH

[1] = target: T2, Neutrophil elastase (Homo sapiens) (UniProt P08246)
T2 sequence (whole entry): T1 sequence (P08246 whole entry)
Description: Inhibition of human leukocyte elastase (HLE)

Row | SMILES | Ki (Neutrophil elastase) [nM] | K inact [1] [M⁻¹ s⁻¹]
1 | CO[C@H]1C(=O)N2C(C(=O)N3CCC[C@H]3C(=O)O)=C(COC(C)=O)CS(=O)(=O)[C@H]12 | 2.2 | 3700
2 | CC(C)c1cccc2c1C(=O)N(COc1cccc(C(=O)NCCN3CCOCC3)c1)S2(=O)=O | > 100 | –
3 | CC(C)c1cccc2c1C(=O)N(COc1c(Cl)cccc1Cl)S2(=O)=O | > 100 | –
4 | CC(C)c1cccc2c1C(=O)N(COc1cccc(C(=O)OCCN3CCOCC3)c1)S2(=O)=O | > 1000 | –
